Experiments:
Collagen I (PIP) = assay: ELISA of collagen I (via PIP) in culture supernatant of human dermal fibroblasts; type: cell-based; conditions: normal human dermal fibroblasts, 72 hours, weighted to viable cells
Description: (§1) An ELISA is an immunological assay commonly used to measure presence and abundance of a specific proteins (antibodies, antigens, proteins and glycoproteins) in biological samples. In this case ELISAs are being used to quantify the expression of dermal extracellular proteins collagen-1, decorin, fibronectin and collagen IV. The quantity of collagen I is evaluated via the quantity of PIP (“carboxU-terminal pro-peptide of procollagen type I”) which is a peptide fragment resulting from the enzymatic degradation of procollagen present outside the fibroblast in the culture supernatant medium.
(§2) Normal human dermal fibroblasts cells (HDFs) were cultured in contact with the tetrapeptides of the present invention, or composition without the peptide (negative control), for 72 hours. Thereafter the cultured supernatants were removed, and the quantity of dermal extracellular proteins determined using an ELISA assay for the protein of interest. For the ELISA quantification, cell viability was calculated using Hoechst staining allowing the quantity of dermal proteins to be weighted to the number of viable cells.
The quantity of collagen I is evaluated using the quantity of PIP (“carboxU-terminal pro-peptide of procollagen type I”) which is a peptide fragment resulting from the enzymatic degradation of procollagen present outside the fibroblast in the culture supernatant medium.
(§3) The effect of XXGD tetrapeptides on ECM protein expression by fibroblasts as measured by ELISA (columns 1 to 2) versus a tetrapeptide not conforming to the XXGD structure (column 3) are presented in the table below (table 1). Results are expressed as % increase or decrease versus the negative control.

Fibronectin = assay: ELISA of fibronectin in culture supernatant of human dermal fibroblasts; type: cell-based; conditions: normal human dermal fibroblasts, 72 hours, weighted to viable cells
Description: as §1, §2, §3

Decorin = assay: ELISA of decorin in culture supernatant of human dermal fibroblasts; type: cell-based; conditions: normal human dermal fibroblasts, 72 hours, weighted to viable cells
Description: as §1, §2, §3

Collagen IV = assay: ELISA of collagen IV in culture supernatant of human dermal fibroblasts; type: cell-based; conditions: normal human dermal fibroblasts, 72 hours, weighted to viable cells
Description: as §1, §2, §3

Fibrillin-1 = assay: Immunofluorescence of Fibrillin-1 expression by HDF cells; type: cell-based, human; conditions: primary HDF cells, 5 days
Description: Immunofluorescence relies on the use of antibodies to label a specific protein with a fluorescent dye such as fluorescein isothiocyanate (FITC). In the following experiments, indirect immunofluorescence is used where a primary antibody first recognises and attaches to the specific protein, in this case fibrillin-1, and then a secondary antibody conjugated with FITC directed against the primary antibody is used for detection.
Fibrillin-1 expression was determined using immunofluorescence. Primary human dermal fibroblast (HDF) cells were purchased from Promo Cell and came from a donor. Cells were grown in wells of 96 well black walled clear bottomed plates (Peirce, Thermo Fisher). Cells were cultured in HDF media (PromoCell) supplemented with Basic Fibroblast Growth Factor (recombinant human), 1 ng/ml and Insulin 5 μg/ml. […]
The antibody binding to Fibrillin-1 fibres was visualised using a Nikon Eclipse 100 microscope fluorescence setting using an excitation lens for fluorescein isothiocyanate (FITC). […] ImageJ software was used to quantify the Fibrillin-1 fibre abundance and coverage in each image using a threshold of 235 measuring the fibre density.
Results are expressed as a percentage increase in fibrillin abundance compared to untreated control. […]

| Substance | Collagen I (PIP) expression, % increase or decrease versus the negative control (Collagen I (PIP); peptide 15 ppm) | Fibronectin expression, % increase or decrease versus the negative control (Fibronectin; peptide 15 ppm) | Decorin expression, % increase or decrease versus the negative control (Decorin; peptide 15 ppm) | Collagen IV expression, % increase or decrease versus the negative control (Collagen IV; peptide 15 ppm) | Fibrillin-1, percentage increase in fibrillin abundance compared to untreated control (Fibrillin-1; peptide 4 ppm (concentration with highest yield)) | Collagen I (PIP) expression, % increase or decrease versus the negative control (Collagen I (PIP); peptide 12.5 ppm) | Fibronectin expression, % increase or decrease versus the negative control (Fibronectin; peptide 12.5 ppm) | Decorin expression, % increase or decrease versus the negative control (Decorin; peptide 12.5 ppm) | Collagen IV expression, % increase or decrease versus the negative control (Collagen IV; peptide 12.5 ppm) | Fibrillin-1, percentage increase in fibrillin abundance compared to untreated control (Fibrillin-1; peptide 10 ppm (concentration with highest yield)) |
| --- | --- | --- | --- | --- | --- | --- | --- | --- | --- | --- |
| Pal-AKGD-OH | +26% | +112% | +39% | +40% | +116% |  |  |  |  |  |
| Pal-EKGD-OH |  |  |  |  |  | +101% | +114% | +43% | +73% |  |
| Pal-GYIL-OH [reference compound] | +18% | −38% | −13% | +6% |  |  |  |  |  | +3% |
